Results on one molecule are retold here after ChEMBL document CHEMBL5034037, “Synthesis, Characterization, and Preclinical Evaluation of a Small-Molecule Prostate-Specific Membrane Antigen-Targeted Monomethyl Auristatin E Conjugate” (J Med Chem, 2021).

Where “and” joins values, the source holds several entries; their conditions need not be identical. Equal entries are not always repeated. Calls of active or inactive are those of the source. No cut-off for these calls is given here. *1 amine or outer side, *2 acyl side, *3 side chain or, on linkers, in order; H or OH if unused. Where a SMILES comes first, the peptide text is derived from it. [ ]: non-standard residue; d: D form. The star is where a group is joined. GluureaLys(ε-3-ClBenzyl) = O=C(O)CC[C@H](NC(=O)N[C@@H](CCCCN(Cc1cccc(Cl)c1)*)C(=O)O)C(=O)O; Dolaproine = CO[C@@H]([C@@H]1CCCN1)[C@@H](C)C(=O)O; Dil = CC[C@H](C)[C@H](NC)[C@@H](CC(=O)O)OC; X1 = O=C(CCCc1cn(CCCN[*:1])nn1)[*:2]; PABC = O=C(OCc1ccc(N[*:1])cc1)[*:2]; X2 = C[C@@H](N*)[C@@H](O)c1ccccc1; Cit = NC(=O)NCCC[C@H](N)C(=O)O; Suc = O=C(CCC(=O)[*:2])[*:1]; NMeV = CN[C@H](C(=O)O)C(C)C; Ahx = NCCCCCC(=O)O

For data set [1], the system named is CWR22R. Kind of data set: Induction morphological changes in human 22Rv1 cells assessed as decrease in cell membrane stiffness measured upto 1 hr. The data set is classed as functional, cell-based. Particulars: time hrs <=1.
The test system of data set [2] is PC-3. The data set is described as follows: Cytotoxicity against human PC-3 cells not expressing PMSA measured using MTT assay. The data set is classed as functional.
A short description of data set [3]: Toxicity in rabbit assessed as morphological changes in pancreas at 81 to 122 microg/kg, iv. Particulars: in vivo, dose 81-122 µg/kg. The data set is classed as tissue-based, Oryctolagus cuniculus.
In data set [4] the test system is Salmonella typhimurium. Kind of data set: Mutagenecity in Salmonella typhimurium TA98 in presence of metabolic activation system at 1000 ug/ml by Ames test. The data set is classed as toxicity, organism-based. The note with it: salmonella enterica subsp. enterica serovar typhimurium; dose 1000 µg/ml.
A short description of data set [5]: Toxicity in rabbit assessed as local irritation in testes at 81 to 122 microg/kg, iv. Further details: species or system Oryctolagus cuniculus. Particulars: in vivo, dose 81-122 µg/kg.
In data set [6] the test system is Salmonella typhimurium. The data set is described as follows: Mutagenecity in Salmonella typhimurium TA98 without metabolic activation system at 10 ug/ml by Ames test. Particulars: salmonella enterica subsp. enterica serovar typhimurium; dose 10 µg/ml. In kind it is toxicity, organism-based.
Data set [7] is described as follows: Toxicity in rabbit morphological change in tongue at 81 to 122 microg/kg, iv. Particulars: in vivo, dose 81-122 µg/kg. In kind it is tissue-based, Oryctolagus cuniculus.
The nature of data set [8]: Acute toxicity in iv dosed ICR mouse assessed as median mortality dose. The note with it: in vivo. The data set is classed as organism-based.
Data set [9] can be described thus: Toxicity in rabbit assessed as morphological changes in spleen pulp at 81 to 122 microg/kg, iv. In kind it is tissue-based, Oryctolagus cuniculus. The note with it: in vivo, dose 81-122 µg/kg.
Data set [10] relates to Salmonella typhimurium. Kind of data set: Mutagenecity in Salmonella typhimurium TA97 without metabolic activation system at 1 ug/ml by Ames test. The data set is classed as toxicity, organism-based. The note with it: salmonella enterica subsp. enterica serovar typhimurium; dose 1 µg/ml.
Data set [11] in a line: Toxicity in rat assessed as morphological changes in heart at 150 to 225 microg/kg, iv. In kind it is tissue-based. Particulars: in vivo, dose 150-225 µg/kg.
Data set [12] in a line: Antitumor activity against human 22Rv1 cells xenografted in mouse assessed as tumour growth inhibition at 0.3 mg/kg, ip daily treated for 5 days after 18 days of tumor implantation measured upto 15 days. The data set is classed as functional, CWR22R. The note with it: 22Rv1, ip, 120 h, time 5 day, read-out: TGI.
Data set [13] is described as follows: Toxicity in rat assessed as morphological changes in heart muscle at 150 to 225 microg/kg, iv. Particulars: in vivo, dose 150-225 µg/kg. In kind it is tissue-based.
Data set [14] is described as follows: Toxicity in rabbit assessed as histological change in spermatagonia in seminiferous tubule in testes at 81 to 122 microg/kg, iv. Further details: species or system Oryctolagus cuniculus. The note with it: in vivo, dose 81-122 µg/kg.

Regarding `CC[C@H](C)[C@@H]([C@@H](CC(=O)N1CCC[C@H]1[C@H](OC)[C@@H](C)C(=O)N[C@H](C)[C@@H](O)c1ccccc1)OC)N(C)C(=O)[C@@H](NC(=O)[C@H](C(C)C)N(C)C(=O)OCc1ccc(NC(=O)[C@H](CCCNC(N)=O)NC(=O)[C@@H](NC(=O)CCCc2cn(CCCNC(=O)[C@H](Cc3ccc(O)cc3)NC(=O)[C@H](Cc3ccccc3)NC(=O)CCC(=O)NCCCCCC(=O)N(CCCC[C@H](NC(=O)N[C@@H](CCC(=O)O)C(=O)O)C(=O)O)Cc3cccc(Cl)c3)nn2)C(C)C)cc1)C(C)C` ({GluureaLys(ε-3-ClBenzyl)-Ahx-Suc}-FY[X1]V[Cit][PABC][NMeV]V[Dil][Dolaproine]-X2), in data set [1], the outcome was Active. In data set [2], this molecule displayed a CC50 of 27 nM. The Activity entry in data set [3], in data set [4], in data set [5], in [6], in [7] and in data set [9] was “Non-Toxic” in each case. The Activity entry in data set [10] was “Non-Toxic”; in [11], “Non-Toxic”; in data set [13], “Non-Toxic”; in [14], “Toxic”. The LD50 in data set [8] is 6.3 mg/kg and 2.7 µmol/kg. Besides, in data set [12], the inhibition in vivo at 0.3 mg/kg is 77.4%.
